The target of the test is SMYD3 (Homo sapiens (Human), UniProt Q9H7B4). Nature of the test: SMYD3 biochemical assay (SMYD3 enzyme assay on MEKK2 protein substrate, scintillation proximity assay). The note with it: 3H-SAM, SPA, IC50 values are an average of n = 1 to n = 50, read-out: SMYD3 Biochem IC50. From the text:
S-adenosylmethionine (SAM), S-adenosylhomocysteine (SAH), Tris, Tween20, dimethylsulfoxide (DMSO), bovine skin gelatin (BSG), and Tris(2-carboxyethyl)phosphine hydrochloride solution (TCEP) were purchased from Sigma-Aldrich at the highest level of purity possible. ^3H-SAM was purchase from American Radiolabeled Chemicals with a specific activity of 80 Ci/mmol. 384-well opaque white OptiPlates and SPA beads (Perkin Elmer, catalog # RPNQ0013) were purchased from PerkinElmer.
N-terminally GST-tagged MEKK2 (MAP3K2) protein corresponding to reference sequence AAF63496.3 was purchased from Life Technologies (catalog # PV4010). […] Protein identity was confirmed by MS/MS analysis after proteolytic digestion. The protein sequence used was:
Full-length human SMYD3 isoform 1 (BAB86333) was inserted into a modified pET21b plasmid containing a His6 tag and TEV and SUMO cleavage sites. Because two common variants of SMYD3 exist in the population, site directed mutagenesis was subsequently performed to change amino acid 13 from an asparagine to a lysine, resulting in plasmid pEPZ533.
E. coli (BL21 codonplus RIL strain, Stratagene) were transformed with plasmid pEPZ553 by mixing competent cells and plasmid DNA and incubating on ice for 30minutes followed by heat shock at 42° C. for 1 minute and cooling on ice for 2 minutes. Transformed cells were grown and selected on LB agar with 100 μg/mL ampicillin and 17 μg/mL chloramphenicol at 37° C. overnight. A single clone was used to inoculate 200 mL of LB medium with 100 μg/mL ampicillin and 17 μg/mL chloramphenicol and incubated at 37° C. on an orbital shaker at 180 rpm. Once in log growth, the culture was diluted 1:100 into 2 L of LB medium and grown until OD600 was about 0.3 after which the culture was incubated at 15° C. and 160 rpm. Once OD600 reached about 0.4, IPTG was added to a final concentration of 0.1 mM and the cells were grown overnight at 15° C. and 160 rpm. Cells were harvested by centrifugation at 8000 rpm, for 4 minutes at 4° C. and stored at −80° C. for purification.
The column was washed with Buffer B (Buffer A plus 20 mM imidazole) and His-tagged SMYD3 was eluted with Buffer C (Buffer A plus 300 mM imidazole). The His tag, TEV and SUMO cleavage sites were removed generating native SMYD3 by addition of ULP1 protein at a ratio of 1:200 (ULP1:SMYD3). Imidazole was removed by dialysis overnight in Buffer A. The dialyzed solution was applied to a second Nickel column and the native SMYD3 protein was collected from the column flow-through. The flow-through was dialyzed in Buffer D (25 mM Tris, 5% glycerol, 5 mM β-mercaptoethanol, 50 mM NaCl, pH7.8) and ULP1 was removed using a Q sepharose fast flow column.
General Procedure for SMYD3 Enzyme Assays on MEKK2 Protein Substrate
The assays were all performed in a buffer consisting of 25 mM Tris-Cl pH 8.0, 1 mM TCEP, 0.005% BSG, and 0.005% Tween 20, prepared on the day of use. Compounds in 100% DMSO (1 ul) were spotted into a 384-well white opaque OptiPlate using a Bravo automated liquid handling platform outfitted with a 384-channel head (Agilent Technologies). DMSO (1 ul) was added to Columns 11, 12, 23, 24, rows A-H for the maximum signal control and 1 ul of SAH, a known product and inhibitor of SMYD3, was added to columns 11, 12, 23, 24, rows I-P for the minimum signal control. A cocktail (40 ul) containing the SMYD3 enzyme was added by Multidrop Combi (Thermo-Fisher). The compounds were allowed to incubate with SMYD3 for 30 min at room temperature, then a cocktail (10 ul) containing SAM and MEKK2 was added to initiate the reaction (final volume=51 ul).
In general terms: Scintillation proximity formats need no separation of bound from free tracer.

Sequence of SMYD3 (Q9H7B4 whole entry): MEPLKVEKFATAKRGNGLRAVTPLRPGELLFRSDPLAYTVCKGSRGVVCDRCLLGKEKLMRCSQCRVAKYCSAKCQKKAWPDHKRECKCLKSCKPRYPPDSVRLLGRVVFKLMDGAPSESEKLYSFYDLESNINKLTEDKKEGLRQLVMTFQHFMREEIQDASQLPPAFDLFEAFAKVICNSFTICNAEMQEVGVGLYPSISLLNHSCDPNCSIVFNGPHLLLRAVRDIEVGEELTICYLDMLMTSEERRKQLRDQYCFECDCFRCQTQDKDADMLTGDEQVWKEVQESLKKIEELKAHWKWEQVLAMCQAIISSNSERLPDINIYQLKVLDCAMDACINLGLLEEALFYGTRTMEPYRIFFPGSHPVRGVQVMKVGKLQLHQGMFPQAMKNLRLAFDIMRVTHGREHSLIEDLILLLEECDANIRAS

As for `NCCC(=O)N(CCN)[C@H]1CC[C@H](NC(=O)c2cc(C3CC3)on2)CC1` [compound 35, N-((1r,4r)-4-(3-amino-N-(2-aminoethyl)propanamido)cyclohexyl)-5-cyclopropylisoxazole-3-carboxamide], the IC50 (as a rule, the concentration at which inhibition is half-maximal) is 0.883 µM.

Turning to `CC(C)CNCCC(=O)N[C@H]1CC[C@H](NC(=O)c2cc(C3CC3)on2)CC1` [compound 19, 5-cyclopropyl-N-((1r,4r)-4-(3-(isobutylamino)propanamido)cyclohexyl)isoxazole-3-carboxamide], the 50% inhibitory concentration (IC50) was determined as 0.919 µM.

As for `C[C@@H](N)CC(=O)N[C@H]1CC[C@@H](N(C)C(=O)c2cc(C3CC3)on2)CC1` [compound 55, N-((1S,4s)-4-((R)-3-aminobutanamido)cyclohexyl)-5-cyclopropyl-N-methylisoxazole-3-carboxamide], the IC50 is 24.4 µM.

Turning to `N[C@H]1CC[C@H](C(=O)N[C@H]2CC[C@H](NC(=O)c3cc(C4CC4)on3)CC2)CC1` [compound 16, N-((1R,4r)-4-((1r,4R)-4-aminocyclohexane-1-carboxamido)cyclohexyl)-5-cyclopropylisoxazole-3-carboxamide], the IC50 came out at 0.606 µM.

Turning to `CCS(=O)(=O)N[C@H]1CC[C@H](NC(=O)c2cc(C3CC3)on2)CC1` [compound 37, 5-cyclopropyl-N-((1r,4r)-4-(ethylsulfonamido)cyclohexyl)isoxazole-3-carboxamide], the IC50 was 6.36 µM.

With `NCCC(=O)N[C@H]1CC[C@H](NC(=O)c2cc(C3CC3)on2)CC1` [compound 4, N-((1r,4r)-4-(3-aminopropanamido)cyclohexyl)-5-cyclopropylisoxazole-3-carboxamide], the concentration for half-maximal inhibition (IC50) is 0.475 µM.

Turning to `N[C@H]1C[C@H](C(=O)N[C@H]2CC[C@H](NC(=O)c3cc(C4CC4)on3)CC2)C1` [compound 22, N-((1R,4r)-4-((1r,3R)-3-aminocyclobutane-1-carboxamido)cyclohexyl)-5-cyclopropylisoxazole-3-carboxamide], the concentration for half-maximal inhibition (IC50) came to 0.269 µM.

On to `C[C@H](N)CC(=O)N[C@H]1CC[C@H](N(CCc2ccccc2)C(=O)c2cc(C3CC3)on2)CC1` [compound 54, N-((1S,4r)-4-((S)-3-aminobutanamido)cyclohexyl)-5-cyclopropyl-N-phenethylisoxazole-3-carboxamide], for which the IC50 amounted to 11.6 µM.

On to `CN1CCN(CCC(=O)N[C@H]2CC[C@H](NC(=O)c3cc(C4CC4)on3)CC2)CC1` [compound 10, 5-cyclopropyl-N-((1r,4r)-4-(3-(4-methylpiperazin-1-yl)propanamido)cyclohexyl)isoxazole-3-carboxamide], for which the IC50 was 7.72 µM.

On to `O=C(CCN1CCOCC1)N[C@H]1CC[C@H](NC(=O)c2cc(C3CC3)on2)CC1` [compound 15, 5-cyclopropyl-N-((1r,4r)-4-(3-morpholino-propanamido)cyclohexyl) isoxazole-3-carboxamide], for which the 50% inhibitory concentration (IC50) came out at 20.4 µM.

With `CC(C)CCN[C@H]1CC[C@H](NC(=O)c2cc(C3CC3)on2)CC1` [compound 25, 5-cyclopropyl-N-((1r,4r)-4-(isopentylamino)cyclohexyl)isoxazole-3-carboxamide], the half-inhibitory concentration (IC50) came out at 8.23 µM.

As for `N[C@@H]1CC[C@H](C(=O)N[C@H]2CC[C@H](NC(=O)c3cc(C4CC4)on3)CC2)C1` [compound 21, N-((1S,4r)-4-((1S,3R)-3-aminocyclopentane-1-carboxamido)cyclohexyl)-5-cyclopropylisoxazole-3-carboxamide], the concentration for half-maximal inhibition (IC50) came out at 0.511 µM.

In the case of `CC(N)CC(=O)N[C@H]1CC[C@H](NC(=O)c2cc(C3CC3)on2)CC1` (some centres unmarked) [compound 1, N-((1r,4r)-4-(3-aminobutanamido)cyclohexyl)-5-cyclopropylisoxazole-3-carboxamide], the half-maximal inhibitory concentration (IC50) was 0.466 µM.

Consider `C[C@@H](N)CC(=O)N[C@H]1CC[C@H](N(C)C(=O)c2cc(C3CC3)on2)CC1` [compound 56, N-((1R,4r)-4-((R)-3-aminobutanamido)cyclohexyl)-5-cyclopropyl-N-methylisoxazole-3-carboxamide], for which the IC50 was 9.28 µM.

Turning to `N[C@H]1C[C@@H](C(=O)N[C@H]2CC[C@H](NC(=O)c3cc(C4CC4)on3)CC2)C1` [compound 14, N-((1R,4r)-4-((1s,3S)-3-aminocyclobutane-1-carboxamido)cyclohexyl)-5-cyclopropylisoxazole-3-carboxamide], the IC50 was determined as 1.18 µM.

For `CC(C)CN(C(=O)c1cc(C2CC2)on1)[C@H]1CC[C@H](NC(=O)C[C@@H](C)N)CC1` [compound 47, N-((1R,4r)-4-((R)-3-aminobutanamido)cyclohexyl)-5-cyclopropyl-N-isobutylisoxazole-3-carboxamide], the IC50 worked out at 3.12 µM.

As to `CC(C)CN(C(=O)c1cc(C2CC2)on1)[C@H]1CC[C@H](NC(=O)C[C@H](C)N)CC1` [compound 48, N-((1S,4r)-4-((S)-3-aminobutanamido)cyclohexyl)-5-cyclopropyl-N-isobutylisoxazole-3-carboxamide], the IC50 came to 3.8 µM.

In the case of `CN(C(=O)c1cc(C2CC2)on1)[C@H]1CC[C@H](NC(=O)CCN)CC1` [compound 60, N-((1r,4r)-4-(3-aminopropanamido)cyclohexyl)-5-cyclopropyl-N-methylisoxazole-3-carboxamide], the IC50 was 5.29 µM.

Consider `NCCC(=O)N[C@H]1CC[C@H](N(Cc2ccccc2)C(=O)c2cc(C3CC3)on2)CC1` [compound 46, N-((1r,4r)-4-(3-aminopropanamido)cyclohexyl)-N-benzyl-5-cyclopropylisoxazole-3-carboxamide], for which the IC50 turned out to be 4.34 µM.

Regarding `NCCC(=O)N(CCO)[C@H]1CC[C@H](NC(=O)c2cc(C3CC3)on2)CC1` [compound 9, N-((1r,4r)-4-(3-amino-N-(2-hydroxyethyl)propanamido)cyclohexyl)-5-cyclo-propylisoxazole-3-carboxamide], the IC50 was found to be 2.28 µM.

Turning to `COCCN(C(=O)c1cc(C2CC2)on1)[C@H]1CC[C@H](NC(=O)CCN)CC1` [compound 44, N-((1r,4r)-4-(3-aminopropanamido)cyclohexyl)-5-cyclopropyl-N-(2-methoxyethyl)isoxazole-3-carboxamide], the half-maximal inhibitory concentration (IC50) was 16.4 µM.

As for `CC(CN)C(=O)N[C@H]1CC[C@H](NC(=O)c2cc(C3CC3)on2)CC1` (some centres unmarked) [compound 8, N-((1r,4r)-4-(3-amino-2-methylpropanamido)cyclohexyl)-5-cyclopropylisoxazole-3-carboxamide], the concentration for half-maximal inhibition (IC50) turned out to be 0.654 µM.

Consider `NCCN[C@H]1CC[C@H](NC(=O)c2cc(C3CC3)on2)CC1` [compound 28, N-((1r,4r)-4-((2-aminoethyl)amino)cyclohexyl)-5-cyclopropylisoxazole-3-carboxamide], for which the IC50 amounted to 0.853 µM.
